Data on six compounds can be found in PMC2818879 (Journal of medicinal chemistry, 2010).

Test [1] deals with reserpine-induced hypolocomotion in rats. As to the kind of experiment: Reversal of reserpine-induced hypolocomotion in rats. The note with it: 10 µMol/kg s.c.; for Effect compared to reserpine control (ANOVA, Dunnett's analysis): horizontal activity, six rats.
The target in a further test is cloned human D2 receptor (Homo sapiens, UniProt P14416). In words: Stimulation of [35S]GTPγS binding, D2 receptor expressed in CHO cells. Particulars: read-out: CHO-D2 %Emax.
Sequence of cloned human D2 receptor (P14416 whole entry): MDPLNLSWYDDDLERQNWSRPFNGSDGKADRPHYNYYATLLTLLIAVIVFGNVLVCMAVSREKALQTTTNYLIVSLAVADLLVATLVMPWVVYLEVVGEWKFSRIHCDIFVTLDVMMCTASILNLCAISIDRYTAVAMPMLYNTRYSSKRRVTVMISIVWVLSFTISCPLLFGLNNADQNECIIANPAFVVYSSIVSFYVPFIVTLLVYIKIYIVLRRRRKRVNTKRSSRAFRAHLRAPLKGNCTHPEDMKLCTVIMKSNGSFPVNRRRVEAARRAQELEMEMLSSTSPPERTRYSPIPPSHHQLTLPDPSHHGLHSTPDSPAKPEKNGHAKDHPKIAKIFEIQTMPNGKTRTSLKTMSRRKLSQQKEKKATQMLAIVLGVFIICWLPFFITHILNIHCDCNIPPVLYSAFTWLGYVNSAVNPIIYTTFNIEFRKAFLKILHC
The target in another test is cloned rat D3 receptor (Rattus norvegicus, UniProt P19020). As to the kind of experiment: Inhibition of [3H]spiperone binding to D3 receptors expressed in HEK-293 cells. Particulars: ratio of Ki values.
A further test concerns 6-OHDA lesioned rats. As to the kind of experiment: Rotational experiment with 6-OH-DA unilaterally lesioned rats. Format: in vivo, rat.

Regarding `CCCN(CCC)CCc1cccc2c1CC(=O)N2` [Ropinirole, reference compound], the “Effect compared to reserpine control (ANOVA, Dunnett's analysis)” value (“Effect compared to reserpine control” for short) in test [1] was “significantly different”. For the same compound, the maximal response (Emax) – broadly, the maximal effect, on the per cent scale that the assay sets – at cloned human D2 receptor is 83.9 ± 0.3%.

For the compound `CCCN(CCN1CCN(c2ccnc3ccccc23)CC1)C1CCc2c(O)cccc2C1` (stereo not shown) [Compound 20d, 6-(Propyl(2-(4-(quinolin-4-yl)piperazin-1-yl)ethyl)amino)-5,6,7,8-tetrahydronaphthalen-1-ol], the D2L/D3 on cloned rat D3 receptor worked out at […].

For the compound `CCCN(CCN1CCN(c2nccc3ccccc23)CC1)[C@H]1CCc2nc(N)sc2C1` [(−)-24c, (S)-N^6-(2-(4-(Isoquinolin-1-yl)piperazin-1-yl)ethyl)-N^6-propyl-4,5,6,7-tetrahydrobenzo[d]-thiazole-2,6-diamine], the “Total rotations (contralateral)” value in the test with 6-OHDA lesioned rats (5 µMol/kg s.c.) was determined as 2805; in the test with 6-OHDA lesioned rats (10 µMol/kg s.c.), 3688. In addition, the “Time of peak effect (rotations)” value with 6-OHDA lesioned rats (10 µMol/kg s.c.) was “about 7 h”. Besides, the “Effect compared to reserpine control” value in test [1] is listed as “significantly different”. Moreover, the Emax on cloned human D2 receptor was determined as 88.4 ± 3.9%.

In the case of `CCCN(CCN1CCN(c2ccnc3ccccc23)CC1)[C@H]1CCc2nc(N)sc2C1` [(−)-24a, (S)-N^6-Propyl-N^6-(2-(4-(quinolin-4-yl)piperazin-1-yl)ethyl)-4,5,6,7-tetrahydrobenzo[d]thiazole-2,6-diamine], the “Effect compared to reserpine control” value in test [1] is recorded as “not statistically significant”. For the same compound, in test [1] (reserpine 5 mg/kg s.c. 18 h before, locomotion monitored 6 h), the “Reversal of reserpine-induced hypolocomotion” value was “much less active compared to 24b and 24c”.

On to `CCCN(CCN1CCN(c2ccc(-c3ccccc3)cc2)CC1)[C@H]1CCc2nc(N)sc2C1` [Compound 2], for which the maximal response (Emax) on cloned human D2 receptor was 119 ± 6%.

With `CCCN(CCN1CCN(c2cccc3ncccc23)CC1)[C@H]1CCc2nc(N)sc2C1` [(−)-24b, (S)-N^6-Propyl-N^6-(2-(4-(quinolin-5-yl)piperazin-1-yl)ethyl)-4,5,6,7-tetrahydrobenzo[d]thiazole-2,6-diamine], in the test on 6-OHDA lesioned rats (5 µMol/kg s.c.), the “Time of peak effect (rotations)” value is “around 5 h” and the “Total rotations (contralateral)” value is reported as 2295. Further, in the test on 6-OHDA lesioned rats (10 µMol/kg s.c.), the “Time of peak effect (rotations)” value is “around 7.5 h” and the “Total rotations (contralateral)” value was determined as 2648. Besides, in test [1], the “Effect compared to reserpine control” value is given as “significantly different”.
